Measured values taken from patent US20100292081A1, “Herbicidal Control Using Sulfentrazone and Dithiopyr” (FMC Corporation, priority 2009, published 2010).

Key:
Type in all cases: in vivo
[1] = system: curly dock (Rumex crispus); experiment: Post-emergence control of curly dock on turf plots (Example 3)
Excerpt: (§1) The presence of a synergistic effect between the two active ingredients is established with the aid of the Colby equation (see Colby, S. R., “Calculating Synergistic and Antagonistic Responses of Herbicide Combinations”, Weeds 1967, 15, pg 20-22): E=X+Y−(XY/100).
(§2) Using the method of Colby, the presence of a synergistic interaction between two active ingredients is established by first calculating the expected activity, ‘E’, of the mixture based on activities of the two components applied alone. In the equation above, ‘X’ is the herbicidal activity in percentage control of sulfentrazone applied alone at rate ‘x’. The ‘Y’ term is the herbicidal activity of dithiopyr applied alone at rate ‘y’. The equation calculates ‘E’, the herbicidal activity of the mixture of ‘X’ at rate ‘x’ with ‘Y’ at rate ‘y’. If ‘E’ is lower than the observed activity, synergy is present. If the herbicidal effects are strictly additive, and no interaction has occurred, ‘E’ will be equal to or higher than the observed activity.
(§3) Control of large crabgrass (Digitaria sanguinalis), parsley piert (Alchenilla arvensis), common chickweed (Stellaria media) and shiny cudweed (Gnaphalium spicatum) was evaluated at 23 days after treatment (DAT) for each test rate. In order t to provide a measure of the effectiveness of a herbicide's performance weed control ratings were based on visual observations of the presence or absence of various weeds or of symptoms (necrosis, wilting, curling of leaves, discoloration etc.) on weeds compared to lack of symptoms. Ratings are based on the 0 to 100 rating system, where 0 equals no control and 100 equals complete control, which generally makes use of direct-percentage figures. In this system the standard basis for comparison is an untreated weedy check. Counts are made of each weed species found in the untreated area of the study. This provides a basis to give a precise representation of both weed infestation and degree of control provided by various chemical treatments. Counts are made on randomly selected areas which are generally 1 square foot to 1 square yard in size. Ratings are made for each weed species found in the untreated treatments. For example, a random area in an untreated plot has 10 yellow nutsedge plants per square foot equaling 0% control. A treated plot has only 1 yellow nutsedge plant found in the randomly selected area equaling 90% control.
(§4) Test compositions containing sulfentrazone (Dismiss™ Turf Herbicide), dithiopyr (DIMENSION® Ultra 40WP Specialty Herbicide) and mixtures thereof, were diluted with water to provide the appropriate test rate concentrations.
(§5) The size of each experimental turf plot was 4 feet by 4 feet, treating the inner 10 ft^2 per plot. The application of each test composition was performed with a pressurized back-pack sprayer, calibrated to spray between 10 and 15 gallons per acre. Four replications were made for each test rate along an untreated control plot.
(§6) Pre-emergence control of crabgrass (Digitaria sp.) was evaluated 180 days after treatment (DAT). Post-emergence control of curly dock (Rumex crispus) and shiny cudweed (Gnaphalium spicatum) parsley were evaluated at 65 days after treatment for each test rate. The evaluation results were compared with results observed in untreated control plots in the same trials as described in Example 1 to determine % control and are summarized in Table 3 below. There was no damage to the turf grass at any rate tested. The Colby equation expected values are also in Table 3.

[2] = system: common chickweed (Stellaria media); experiment: Pre-emergent herbicidal evaluation on turf plots (Example 1), common chickweed
Excerpt: as §1, §2, §4, §5
(§7) Control of large crabgrass (Digitaria sanguinalis), parsley piert (Alchenilla arvensis), common chickweed (Stellaria media) and shiny cudweed (Gnaphalium spicatum) was evaluated at 23 days after treatment (DAT) for each test rate. In order t to provide a measure of the effectiveness of a herbicide's performance weed control ratings were based on visual observations of the presence or absence of various weeds or of symptoms (necrosis, wilting, curling of leaves, discoloration etc.) on weeds compared to lack of symptoms. […]

[3] = system: shiny cudweed (Gnaphalium spicatum); experiment: Post-emergence control of shiny cudweed on turf plots (Example 3)
Excerpt: as §1, §2, §3, §4, §5, §6

[4] = system: crabgrass (Digitaria sp.); experiment: Pre-emergence control of crabgrass on turf plots (Example 3)
Excerpt: as §1, §2, §3, §4, §5, §6

[5] = system: parsley piert (Alchenilla arvensis); experiment: Pre-emergent herbicidal evaluation on turf plots (Example 1), parsley piert
Excerpt: as §1, §2, §4, §5, §7

[6] = system: crabgrass (Digitaria sp.); experiment: Early post-emergent control of crabgrass on turf plots (Example 4); details: 1 to 4 leaf stage, 45 DAT, X-77 0.25% V/V
Excerpt: as §1, §2, §3
Test compositions containing sulfentrazone (Dismiss™ Turf Herbicide), dithiopyr (DIMENSION® Ultra 40WP Specialty Herbicide) and mixtures thereof, were diluted with water to provide the appropriate test rate concentrations. A non-ionic surfactant (X-77) was added to each test solution, 0.25% V/V. […]
Control of crabgrass (Digitaria sp.) was evaluated at 45 days after treatment for each test rate. […]

[7] = system: large crabgrass (Digitaria sanguinalis); experiment: Pre-emergent herbicidal evaluation on turf plots (Example 1), large crabgrass
Excerpt: as §1, §2, §4, §5
In order t to provide a measure of the effectiveness of a herbicide's performance weed control ratings were based on visual observations of the presence or absence of various weeds or of symptoms (necrosis, wilting, curling of leaves, discoloration etc.) on weeds compared to lack of symptoms. Ratings are based on the 0 to 100 rating system, where 0 equals no control and 100 equals complete control, which generally makes use of direct-percentage figures. In this system the standard basis for comparison is an untreated weedy check. […]

[8] = system: broadleaf weeds (medic, buckhorn plantain, clover, red sorrel, dandelion); experiment: Post-emergent herbicidal evaluation on turf plots (Example 2), broadleaf weeds in total; details: 45 DAT, NIS 0.25% V/V
Excerpt: as §1, §2, §3
Test compositions containing sulfentrazone (Dismiss™ Turf Herbicide), dithiopyr (DIMENSION® Ultra 40WP Specialty Herbicide) and mixtures thereof, were diluted with water to provide the appropriate test rate concentrations. A non-ionic surfactant (NIS) was added to each test solution, 0.25% V/V.
as §5, with “plot. The post-emergence application of” for “plot. The application of”
Control of broadleaf weeds was evaluated at 45 days after treatment (DAT) for each test rate. The broadleaf weeds included medic (Medicago sp.), buckhorn plantain (Plantago lanceolata), clover (Trifolium sp.), red sorrel (Rumex acetosella) and dandelion (Traxacum afficinale). Percent control of the broadleaf weeds was reported as a total number of broadleaf weeds controlled, not as individual species. The evaluation results were compared with results observed in untreated control plots in the same trials as described in Example 1 to determine % control and are summarized in Table 2 below. There was no damage to the turf grass at any rate tested. The Colby equation expected values are also in Table 2.

[9] = system: shiny cudweed (Gnaphalium spicatum); experiment: Pre-emergent herbicidal evaluation on turf plots (Example 1), shiny cudweed
Excerpt: as §1, §2, §4, §5, §7

## Cc1nn(-c2cc(NS(C)(=O)=O)c(Cl)cc2Cl)c(=O)n1C(F)F [Sulfentrazone, N-[2,4-dichloro-5-[4-difluoromethyl-4,5-dihydro-3-methyl-5-oxo-1H-1,2,4-triazol-1-yl]phenyl]methanesulfonamide]
[1]; 0.0625 lb/ac
  % Control of Weeds Curly Dock 65 DAT Post-emergent application: 0%
[1]; 0.125 lb/ac
  % Control of Weeds Curly Dock 65 DAT Post-emergent application: 16%
[1]; 0.25 lb/ac
  % Control of Weeds Curly Dock 65 DAT Post-emergent application: 20%
[2]; 0.25 lb/ac
  % Control of Weeds Common Chickweed 23 DAT: 45%
[2]; .0125 lb/ac
  % Control of Weeds Common Chickweed 23 DAT: 23%
[3]; 0.0625 lb/ac
  % Control of Weeds Shiny Cudweed 65 DAT Post-emergent application: 30%
[3]; 0.125 lb/ac
  % Control of Weeds Shiny Cudweed 65 DAT Post-emergent application: 50%
[3]; 0.25 lb/ac
  % Control of Weeds Shiny Cudweed 65 DAT Post-emergent application: 50%
[4]; 0.0625 lb/ac
  % Control of Weeds Crabgrass 180 DAT Pre-emergent application: 0%
[4]; 0.125 lb/ac
  % Control of Weeds Crabgrass 180 DAT Pre-emergent application: 0%
[4]; 0.25 lb/ac
  % Control of Weeds Crabgrass 180 DAT Pre-emergent application: 0%
[5]; 0.25 lb/ac
  % Control of Weeds Parsley Piert 23 DAT: 47%
[5]; .0125 lb/ac
  % Control of Weeds Parsley Piert 23 DAT: 40%
[6]; 0.125 lb/ac
  % Control of Crabgrass: 30%
[6]; 0.25 lb/ac
  % Control of Crabgrass: 36%
[7]; 0.25 lb/ac
  % Control of Weeds Large Crabgrass 132 DAT: 23%
[7]; .0125 lb/ac
  % Control of Weeds Large Crabgrass 132 DAT: 7%
[8]; 0.125 lb/ac
  % Broadleaf Weed Cover: 15%
  % Control of Broadleaf Weeds: 16%
[8]; 0.25 lb/ac
  % Broadleaf Weed Cover: 10%
  % Control of Broadleaf Weeds: 44%
[9]; 0.25 lb/ac
  % Control of Weeds Shiny Cudweed 23 DAT: 43%
[9]; .0125 lb/ac
  % Control of Weeds Shiny Cudweed 23 DAT: 31%

## CSC(=O)c1c(C(F)F)nc(C(F)(F)F)c(C(=O)SC)c1CC(C)C [Dithiopyr, S,S′-dimethyl 2-(difluoromethyl)-4-(2-methylpropyl)-6-(trifluoromethyl)-3,5-pyridinedicarbothiolate]
[1]; 0.0125 lb/ac
  % Control of Weeds Curly Dock 65 DAT Post-emergent application: 36%
[1]; 0.25 lb/ac
  % Control of Weeds Curly Dock 65 DAT Post-emergent application: 60%
[2]; 0.5 lb/ac
  % Control of Weeds Common Chickweed 23 DAT: 53%
[3]; 0.0125 lb/ac
  % Control of Weeds Shiny Cudweed 65 DAT Post-emergent application: 53%
[3]; 0.25 lb/ac
  % Control of Weeds Shiny Cudweed 65 DAT Post-emergent application: 60%
[4]; 0.0125 lb/ac
  % Control of Weeds Crabgrass 180 DAT Pre-emergent application: 59%
[4]; 0.25 lb/ac
  % Control of Weeds Crabgrass 180 DAT Pre-emergent application: 23%
[5]; 0.5 lb/ac
  % Control of Weeds Parsley Piert 23 DAT: 38%
[6]; 0.25 lb/ac
  % Control of Crabgrass: 50%
[6]; 0.5 lb/ac
  % Control of Crabgrass: 88%
[7]; 0.5 lb/ac
  % Control of Weeds Large Crabgrass 132 DAT: 88%
[8]; 0.125 lb/ac
  % Broadleaf Weed Cover: 21%
  % Control of Broadleaf Weeds: 0%
[8]; 0.25 lb/ac
  % Broadleaf Weed Cover: 8%
  % Control of Broadleaf Weeds: 55%
[9]; 0.5 lb/ac
  % Control of Weeds Shiny Cudweed 23 DAT: 29%
